Each structure is given as a SMILES string.

This note sets out measurements from BindingDB's records for doi:10.1016/j.bmc.2017.06.015 (China Pharmaceutical University, 2017).

A short description of data set [1]: Inhibition of ABCB1 in human K562/A02 cells assessed as potentiation of adriamycin-induced cytotoxicity by measuring ADR IC50 at 5 uM measured after 48 hrs by MTT assay (Rvb = 43.75 to 96.91 uM). For orientation: Formazan colour is commonly taken as a measure of viable cells.
Data set [2] in a line: Inhibition of ABCB1 in human K562/A02 cells assessed as potentiation of adriamycin-induced cytotoxicity by measuring ADR IC50 at 0.5 uM measured after 48 hrs by MTT assay (Rvb = 43.75 uM).
Data set [3] is described as follows: Inhibition of ABCB1 in human K562/A02 cells assessed as potentiation of adriamycin-induced cytotoxicity by measuring ADR IC50 measured after 48 hrs by MTT assay (Rvb = 51.34 +/- 5.1 uM).
The nature of data set [4]: Inhibition of ABCB1 in human K562/A02 cells assessed as potentiation of adriamycin-induced cytotoxicity measured after 48 hrs by MTT assay.
Data set [5] in a line: Inhibition of ABCB1 in human K562/A02 cells assessed as potentiation of adriamycin-induced cytotoxicity by measuring ADR IC50 at 1 uM measured after 48 hrs by MTT assay (Rvb = 43.75 uM).
The nature of data set [6]: Inhibition of ABCB1 in human K562/A02 cells assessed as potentiation of adriamycin-induced cytotoxicity by measuring ADR IC50 at 0.25 uM measured after 48 hrs by MTT assay (Rvb = 43.75 uM).
Data set [7] in a line: Inhibition of ABCB1 in human K562/A02 cells assessed as potentiation of adriamycin-induced cytotoxicity by measuring ADR IC50 treated for 48 hrs followed by compound washout measured after 12 hrs by MTT assay (Rvb = 51.34 +/- 5.1 uM).
For data set [8], the target named is ATP-dependent translocase ABCB1 (Homo sapiens, UniProt P08183). The experiment in a line: Inhibition of ABCB1 in human K562/A02 cells assessed as potentiation of adriamycin-induced cytotoxicity by measuring ADR IC50 at 5 uM measured after 48 hrs by MTT assay (Rvb = 43.75 to 96.91 uM).
The nature of data set [9]: Inhibition of ABCB1 in human K562/A02 cells assessed as potentiation of adriamycin-induced cytotoxicity by measuring ADR IC50 at 0.1 uM measured after 48 hrs by MTT assay (Rvb = 43.75 uM).
A short description of data set [10]: Inhibition of ABCB1 in human K562/A02 cells assessed as potentiation of adriamycin-induced cytotoxicity by measuring ADR IC50 treated for 48 hrs followed by compound washout measured after 24 hrs by MTT assay (Rvb = 51.34 +/- 5.1 uM).
Data set [11] can be described thus: Inhibition of ABCB1 in human K562/A02 cells assessed as potentiation of adriamycin-induced cytotoxicity by measuring ADR IC50 treated for 48 hrs followed by compound washout measured after 6 hrs by MTT assay (Rvb = 51.34 +/- 5.1 uM).
Data set [12] is described as follows: Inhibition of ABCB1 in human K562/A02 cells assessed as potentiation of adriamycin-induced cytotoxicity by measuring ADR IC50 at 0.025 uM measured after 48 hrs by MTT assay (Rvb = 43.75 uM).
Data set [13] can be described thus: Inhibition of ABCB1 in human K562/A02 cells assessed as potentiation of adriamycin-induced cytotoxicity by measuring ADR IC50 treated for 48 hrs followed by compound washout measured immediately by MTT assay (Rvb = 51.34 +/- 5.1 uM).
Data set [14] in a line: Inhibition of ABCB1 in human K562/A02 cells assessed as potentiation of adriamycin-induced cytotoxicity by measuring ADR IC50 at 2.5 uM measured after 48 hrs by MTT assay (Rvb = 43.75 uM).
Data set [15] in a line: Inhibition of ABCB1 in human K562/A02 cells assessed as potentiation of adriamycin-induced cytotoxicity by measuring ADR IC50 at 0.05 uM measured after 48 hrs by MTT assay (Rvb = 43.75 uM).

ATP-dependent translocase ABCB1, sequence (P08183 whole entry): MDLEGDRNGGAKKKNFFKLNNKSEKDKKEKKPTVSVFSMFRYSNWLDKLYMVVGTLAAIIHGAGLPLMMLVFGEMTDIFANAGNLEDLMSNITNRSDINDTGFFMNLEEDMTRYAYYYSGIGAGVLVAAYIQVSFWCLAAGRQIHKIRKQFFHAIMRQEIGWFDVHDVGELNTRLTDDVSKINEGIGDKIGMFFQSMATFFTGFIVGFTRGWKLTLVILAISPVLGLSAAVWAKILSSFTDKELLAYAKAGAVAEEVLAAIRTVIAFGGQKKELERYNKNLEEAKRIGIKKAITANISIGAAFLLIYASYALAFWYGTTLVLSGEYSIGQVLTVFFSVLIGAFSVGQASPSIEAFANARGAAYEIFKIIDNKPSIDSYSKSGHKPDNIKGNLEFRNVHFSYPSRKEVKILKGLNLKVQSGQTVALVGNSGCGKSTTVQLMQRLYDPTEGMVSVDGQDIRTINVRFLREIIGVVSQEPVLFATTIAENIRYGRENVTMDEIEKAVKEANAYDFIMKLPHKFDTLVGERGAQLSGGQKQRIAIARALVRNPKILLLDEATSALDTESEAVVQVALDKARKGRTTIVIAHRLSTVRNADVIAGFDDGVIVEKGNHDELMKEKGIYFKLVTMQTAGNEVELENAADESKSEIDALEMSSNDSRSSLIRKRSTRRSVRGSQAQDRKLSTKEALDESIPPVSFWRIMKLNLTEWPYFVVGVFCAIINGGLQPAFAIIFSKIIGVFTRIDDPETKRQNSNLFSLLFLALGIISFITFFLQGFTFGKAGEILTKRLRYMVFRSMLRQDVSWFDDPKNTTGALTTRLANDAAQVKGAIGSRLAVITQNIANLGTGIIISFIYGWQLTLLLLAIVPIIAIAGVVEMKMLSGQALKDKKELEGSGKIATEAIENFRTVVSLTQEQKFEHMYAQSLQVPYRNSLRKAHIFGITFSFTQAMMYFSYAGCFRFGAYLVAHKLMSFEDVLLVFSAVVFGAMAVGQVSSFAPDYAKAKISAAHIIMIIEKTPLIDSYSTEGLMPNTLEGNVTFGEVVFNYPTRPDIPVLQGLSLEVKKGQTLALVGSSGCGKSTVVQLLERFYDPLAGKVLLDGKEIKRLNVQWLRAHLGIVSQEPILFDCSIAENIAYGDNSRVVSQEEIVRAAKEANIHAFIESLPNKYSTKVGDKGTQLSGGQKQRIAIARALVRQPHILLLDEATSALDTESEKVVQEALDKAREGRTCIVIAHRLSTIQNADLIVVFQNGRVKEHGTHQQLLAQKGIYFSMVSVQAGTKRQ

Turning to `COc1cc2c(cc1OC)CN(CCn1cc(COc3ccccc3C(=O)Nc3ccc(F)cc3)nn1)CC2`, the IC50 (as a rule, the point on the concentration scale where inhibition reaches its midpoint) in data set [1] stood at 8.29 µM.
The same measure, in the same setting: under `COc1cc2c(cc1OC)CN(CCn1cc(COc3ccccc3C(=O)Nc3cc(OC)c(OC)c(OC)c3)nn1)CC2` stands 31.9 µM; under `CCCCc1ccc(NC(=O)c2ccccc2OCc2cn(CCN3CCc4cc(OC)c(OC)cc4C3)nn2)cc1`, 6.25 µM.
Regarding `COc1cc2c(cc1OC)CN(CCn1cc(COc3ccccc3C(=O)Nc3cccc(C)c3)nn1)CC2`, the IC50 in data set [1] was determined as 12.2 µM.
As for `COc1cc2c(cc1OC)CN(CCn1cc(COc3ccccc3C(=O)Nc3ccc(C(C)(C)C)cc3)nn1)CC2`, the half-inhibitory concentration (IC50) in [2] was found to be 12.5 µM; in data set [3] it was 1.26 µM; in data set [5], 6.02 µM; in [6] it was 18.4 µM; in data set [7] it was 10.3 µM; in data set [8], 1.27 µM. Also, the IC50 in [9] is 34.9 µM; in data set [10] it was 17.2 µM; in data set [11], 6.32 µM; in data set [12] it was 37.2 µM; in data set [13] it was 4.33 µM; in [14], 3.33 µM. Also, the half-maximal inhibitory concentration (IC50) in data set [15] turned out to be 37.2 µM. In addition, the EC50 (usually the concentration giving half of the maximal effect) in data set [4] was found to be 0.256 µM.
Regarding `COc1cc2c(cc1OC)CN(CCn1cc(COc3ccccc3C(=O)Nc3ccc(OC(F)(F)F)cc3)nn1)CC2`, the IC50 in data set [1] was 4.52 µM.
Consider `COc1cc2c(cc1OC)CN(CCn1cc(COc3ccccc3C(=O)Nc3ccc(C)cc3)nn1)CC2`, for which, in [1], the IC50 was determined as 7.65 µM.
Still for that read-out and setting: to `COc1cc2c(cc1OC)CN(CCn1cc(COc3ccccc3C(=O)Nc3cccc([N+](=O)[O-])c3)nn1)CC2` belongs 27.7 µM; to `COc1cc2c(cc1OC)CN(CCn1cc(COc3ccccc3C(=O)Nc3ccccc3)nn1)CC2`, 25.5 µM.
Turning to `COc1cc2c(cc1OC)CN(CCc1ccc(NC(=O)c3cc(OC)c(OC)cc3NC(=O)c3cnc4ccccc4c3)cc1)CC2`, the 50% inhibitory concentration (IC50) in [3] was 1.6 µM; in data set [7] it was 8.28 µM; in data set [10] it was 14.4 µM; in data set [11] it was 4.97 µM; in data set [1], 1.97 µM; in data set [13] it was 3.02 µM.
Turning to `COc1cc2c(cc1OC)CN(CCn1cc(COc3ccccc3NC(=O)c3ccc(C(C)(C)C)cc3)nn1)CC2`, the concentration for half-maximal inhibition (IC50) in data set [1] was 3.42 µM.
Still for that read-out and setting: to `COc1cc2c(cc1OC)CN(CCn1cc(COc3ccccc3C(=O)Nc3ccccc3[N+](=O)[O-])nn1)CC2` belongs 26.9 µM.
Still for that read-out and setting: under `COc1ccc(NC(=O)c2ccccc2OCc2cn(CCN3CCc4cc(OC)c(OC)cc4C3)nn2)cc1` stands 8.38 µM.
`COc1cccc(NC(=O)c2ccccc2OCc2cn(CCN3CCc4cc(OC)c(OC)cc4C3)nn2)c1`: the half-inhibitory concentration (IC50) in [8] was 8.73 µM.
As to `COc1cc2c(cc1OC)CN(CCn1cc(COc3ccccc3C(=O)Nc3ccc([N+](=O)[O-])cc3)nn1)CC2`, the IC50 in data set [1] worked out at 21.1 µM.
The same measure, in the same setting: under `COc1ccc(NC(=O)c2ccccc2OCc2cn(CCN3CCc4cc(OC)c(OC)cc4C3)nn2)cc1OC` stands 7.82 µM; under `COc1cc2c(cc1OC)CN(CCn1cc(COc3ccccc3C(=O)Nc3ccc(Cl)cc3)nn1)CC2`, 6.93 µM.
In the case of `COc1cc2c(cc1OC)CN(CCn1cc(COc3ccccc3C(=O)Nc3cccc(Cl)c3)nn1)CC2`, the IC50 in data set [1] was 22.8 µM.
